Experimental data taken from patent US10538555B2, “Macrocyclic inhibitors of the PD-1/PD-L1 and CD80(B7-1)/PD-L1 protein/protein interactions” (BRISTOL-MYERS SQUIBB COMPANY, priority 2014, dated 2020).
Where a SMILES comes first, the peptide text is derived from it. Bridges are numbered along the chain shown (N, C = ends). [ ]: non-standard residue; d: D form. Trp(βS-Me) = C[C@@H](c1c[nH]c2ccccc12)[C@H](N)C(=O)O; Phe(3,4,5-F3) = N[C@@H](Cc1cc(F)c(F)c(F)c1)C(=O)O; d(cisHyp) = O=C(O)[C@H]1C[C@@H](O)CN1; NMeY = CN[C@@H](Cc1ccc(O)cc1)C(=O)O; Hyp = O=C(O)[C@@H]1C[C@@H](O)CN1; NMeF = CN[C@@H](Cc1ccccc1)C(=O)O; dNMeF = CN[C@H](Cc1ccccc1)C(=O)O; dHyp = O=C(O)[C@H]1C[C@H](O)CN1; NMeNle = CCCC[C@H](NC)C(=O)O; Tle = CC(C)(C)[C@H](N)C(=O)O; NMeA = CN[C@@H](C)C(=O)O; Orn = NCCC[C@H](N)C(=O)O; Dab = NCC[C@H](N)C(=O)O

target: T1, Human PD-L1/PD-1 (Homo sapiens, UniProt Q9NZQ7); assay: HTRF Human PD-L1/PD-1 binding assay (PD-1-Ig/PD-L1-His); conditions: PD-L1-His 10 nM, PD-1-Ig 20 nM; class symbol; read-out: HTRF Human PD-L1/PD-1 Binding Assay IC50 Range
T1 construct: TVMV protease cleavage site (C); made in house; host or cells: HEK293T cells
In short: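 Step 1: compound with PD-L1-His (10 nM final), 15 min. Step 2: PD-1-Ig (20 nM final), 15 min. Step 3: Eu-cryptate anti-Ig (1 nM) plus APC anti-His (20 nM), 30 min equilibration. Signal taken as 665 nm/620 nm ratio.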

T1 sequence (Q9NZQ7 with tags, fused parts or gaps): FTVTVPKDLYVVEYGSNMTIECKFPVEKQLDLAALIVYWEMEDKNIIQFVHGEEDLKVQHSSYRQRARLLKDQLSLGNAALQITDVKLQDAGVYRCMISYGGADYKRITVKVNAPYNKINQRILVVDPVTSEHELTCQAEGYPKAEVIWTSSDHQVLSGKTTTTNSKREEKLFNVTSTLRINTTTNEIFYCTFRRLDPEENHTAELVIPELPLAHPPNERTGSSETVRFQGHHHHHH

Structure (SMILES) | IC50 [µM]
CCCC[C@H]1C(=O)N2C[C@H](O)C[C@@H]2C(=O)N[C@@H](CC(=O)O)C(=O)N[C@@H](C(C)C)C(=O)N(C)[C@@H](Cc2ccccc2)C(=O)N[C@@H](CCC(=O)O)C(=O)N2C[C@H](O)C[C@@H]2C(=O)N[C@@H](Cc2c[nH]c3ccccc23)C(=O)N[C@@H](Cc2ccc(O)cc2)C(=O)N[C@@H](CCC(=O)O)C(=O)N[C@H](C(=O)NCC(N)=O)CSCC(=O)N[C@@H](Cc2cc(F)c(F)c(F)c2)C(=O)N(C)[C@@H](Cc2ccc(O)cc2)C(=O)N1C [Example 10637] ({CH2CO}-[Phe(3,4,5-F3)][NMeY][NMeNle][d(cisHyp)]DV[NMeF]E[d(cisHyp)]WYECG-NH2; thioether N-13) | 0.01 to 0.0999
CCCC[C@H]1C(=O)N(C)[C@@H](CCCC)C(=O)N[C@@H](CCCNC(=N)N)C(=O)N[C@H](C(=O)NCC(N)=O)CSCC(=O)N[C@@H](Cc2ccc(O)cc2)C(=O)N(C)[C@@H](C)C(=O)N[C@@H](CC(N)=O)C(=O)N2CCC[C@H]2C(=O)N[C@@H](CCN)C(=O)N[C@@H](CC(C)C)C(=O)N2C[C@H](O)C[C@H]2C(=O)N[C@@H](Cc2c[nH]c3ccccc23)C(=O)N[C@@H](C(C)(C)C)C(=O)N[C@@H](Cc2c[nH]c3ccccc23)C(=O)N1C [Example 11001] ({CH2CO}-Y[NMeA]NP[Dab]L[Hyp]W[Tle]W[NMeNle][NMeNle]RCG-NH2; thioether N-14) | 0.01 to 0.0999
CCCC[C@H]1C(=O)N(C)[C@@H](CCCC)C(=O)N[C@@H](CCCCN)C(=O)N[C@H](C(=O)NCC(N)=O)CSCC(=O)N[C@@H](Cc2ccc(O)cc2)C(=O)N(C)[C@@H](C)C(=O)N[C@@H](CC(=O)O)C(=O)N2CCC[C@H]2C(=O)N[C@@H](Cc2c[nH]cn2)C(=O)N[C@@H](CC(C)C)C(=O)N2C[C@H](O)C[C@H]2C(=O)N[C@@H](Cc2c[nH]c3ccccc23)C(=O)N[C@@H](CO)C(=O)N[C@@H](Cc2c[nH]c3ccccc23)C(=O)N1C [Example 11002] ({CH2CO}-Y[NMeA]DPHL[Hyp]WSW[NMeNle][NMeNle]KCG-NH2; thioether N-14) | 0.001 to 0.0099
CCCC[C@H]1C(=O)N(C)[C@@H](CCCC)C(=O)N[C@@H](CCCNC(=N)N)C(=O)N[C@H](C(=O)NCC(N)=O)CSCC(=O)N[C@@H](Cc2ccc(O)cc2)C(=O)N(C)[C@@H](C)C(=O)N[C@@H](CC(=O)O)C(=O)N2CCC[C@H]2C(=O)N[C@@H](Cc2c[nH]cn2)C(=O)N[C@@H](CC(C)C)C(=O)N2C[C@H](O)C[C@H]2C(=O)N[C@@H](Cc2c[nH]c3ccccc23)C(=O)N[C@@H](CCCCN)C(=O)N[C@@H](Cc2c[nH]c3ccccc23)C(=O)N1C [Example 11003] ({CH2CO}-Y[NMeA]DPHL[Hyp]WKW[NMeNle][NMeNle]RCG-NH2; thioether N-14) | 0.001 to 0.0099

Next, values leading:

IC50 [µM] | Structure (SMILES)
0.01 to 0.0999 | CCCC[C@H]1C(=O)N2CCC[C@@H]2C(=O)N[C@@H](CC(=O)O)C(=O)N[C@@H](C(C)C)C(=O)N(C)[C@@H](Cc2ccccc2)C(=O)N[C@@H](CCC(=O)O)C(=O)N2C[C@H](O)C[C@@H]2C(=O)N[C@@H](Cc2c[nH]c3ccccc23)C(=O)N[C@@H](Cc2ccc(O)cc2)C(=O)N[C@@H](CCC(=O)O)C(=O)N[C@H](C(=O)NCC(N)=O)CSCC(=O)N[C@@H](Cc2cc(F)c(F)c(F)c2)C(=O)N(C)[C@@H](Cc2ccc(O)cc2)C(=O)N1C [Example 10633] ({CH2CO}-[Phe(3,4,5-F3)][NMeY][NMeNle][dP]DV[NMeF]E[d(cisHyp)]WYECG-NH2; thioether N-13)
0.01 to 0.0999 | CCCC[C@H]1C(=O)N2C[C@@H](O)C[C@@H]2C(=O)N[C@@H](CC(=O)O)C(=O)N[C@@H](C(C)C)C(=O)N(C)[C@H](Cc2ccccc2)C(=O)N[C@@H](Cc2ccc(O)cc2)C(=O)N2CCC[C@@H]2C(=O)N[C@@H]([C@@H](C)c2c[nH]c3ccccc23)C(=O)N[C@@H](Cc2ccc(O)cc2)C(=O)N[C@@H](CC(C)C)C(=O)N[C@H](C(=O)NCC(N)=O)CSCC(=O)N[C@@H](Cc2cc(F)c(F)c(F)c2)C(=O)N(C)[C@@H](Cc2ccccc2)C(=O)N1C [Example 10640] ({CH2CO}-[Phe(3,4,5-F3)][NMeF][NMeNle][dHyp]DV[dNMeF]Y[dP][Trp(βS-Me)]YLCG-NH2; thioether N-13)

same assay, conditions: PD-L1-His 10 nM, PD-1-Ig 20 nM; read-out: HTRF Human PD-L1/PD-1 Binding Assay IC50

IC50 [µM] | Structure (SMILES)
0.0125 | CCCC[C@H]1C(=O)N2C[C@H](O)C[C@@H]2C(=O)N[C@@H](CC(=O)O)C(=O)N[C@@H](C(C)C)C(=O)N(C)[C@@H](Cc2ccccc2)C(=O)N[C@@H](CCC(=O)O)C(=O)N2C[C@H](O)C[C@@H]2C(=O)N[C@@H](Cc2c[nH]c3ccccc23)C(=O)N[C@@H](Cc2ccc(O)cc2)C(=O)N[C@@H](CCCN)C(=O)N[C@H](C(=O)NCC(N)=O)CSCC(=O)N[C@@H](Cc2cc(F)c(F)c(F)c2)C(=O)N(C)[C@@H](Cc2ccc(O)cc2)C(=O)N1C [Example 10638] ({CH2CO}-[Phe(3,4,5-F3)][NMeY][NMeNle][d(cisHyp)]DV[NMeF]E[d(cisHyp)]WY[Orn]CG-NH2; thioether N-13)
